Results as given in patent US10632115B2, “Use of a statin compound as local drug for treating obesity, diabetes, hypertension and hyperlipemia” (Peking University Third Hospital, priority 2015, dated 2020).

Assays:
diabetic rats = test: Fasting blood glucose assay in diabetic rats after single intraosseous statin injection; assay type: in vivo, rat; details: 1-14 weeks after single intraosseous injection (fluvastatin 8 mg, atorvastatin 4 mg, rosuvastatin 2 mg); tail blood, glucose meter
Description: 36 three-month-old male SD rats (250-300 g) rats were accommodated for one week, in accordance with standard procedures of diabetic rat model, intraperitoneal injection of streptozotocin (STZ, Sigma Company) 40 mg/kg, the next day administration of high fat diet (purchased from Institute of Zoology, recipe: 68.5% base stock, lard 20%, 10% sucrose, 1% cholesterol and 0.5% porcine bile salts).
Two months later, all the rats were abnormally elevated blood glucose (above 19.5 mmol/L), indicate a successful model (Zhouguang Xing animal models of human disease replication methodology Shanghai Science and Technology Literature Press, 2008: 167-168 SHI Xin animal models of human disease People's Health Press, 2008: 301-305). […] Bone wax pinhole puncture closure avoiding leakage and sutured wounds.
After the rats were fasted 6 h, take one drop of blood (about 50 ul) from the rat tail and placed in the blood sugar test paper (Roche), 2 seconds later, fasting blood glucose were determinated by Roche glucose meter (ACCU-CHEK Performa). […]

type 2 diabetes patients = details: oral atorvastatin 10 mg/d for 16 weeks added to conventional antidiabetic; vs control group; cited from earlier work
[1] = oral atorvastatin 10 mg/day, simvastatin 40 mg/day; cited from earlier work

SMILES	fasting blood glucose (diabetic rats)	blood glucose (type 2 diabetes patients)	effect on diabetes [1]
CC(C)c1c(C(=O)Nc2ccccc2)c(-c2ccccc2)c(-c2ccc(F)cc2)n1CC[C@@H](O)C[C@@H](O)CC(=O)O [atorvastatin]	significantly reduced	much better than the control group	no effect
CC(C)c1nc(N(C)S(C)(=O)=O)nc(-c2ccc(F)cc2)c1/C=C/[C@@H](O)C[C@@H](O)CC(=O)O [rosuvastatin]	significantly reduced		
